Where a SMILES comes first, the peptide text is derived from it. Bridges are numbered along the chain shown (N, C = ends).
Assays:
[1] = test system: cells of rat pituitary glands; assay: in vitro radioimmunoassays of growth hormone release from cultured rat pituitary cells, side-by-side with somatostatin-14; type: cell-based; settings: comparative testing in rat pituitary cell cultures
Description: To determine the effectiveness of the peptides to inhibit the release of insulin, in vitro radioimmunoassays are carried out using aSS-28, [Lys^23 ]-aSS-28 and aSS(15-28) in side-by-side comparison with equimolar concentrations of somotostatin-14 having a known effectiveness to inhibit the release of growth hormone induced by the application of isobutyl methyl xanthine to pituitary cells. Cultures are used which include cells of rat pituitary glands removed some four to five days previously in a system that minimizes enzymatic degradation, generally following the procedure set forth in Vale et al., Methods in Enzymology, Hormones and Cyclic Nucleotides (1975) Vol. 37, p. 82. Both cultures of a defined standard medium and cultures which are considered optimal for the secretion of growth hormone, as a result of having additions of either 2% or 10% of serum from a foetal calf, are used for the comparative testing.

[2] = synthetic SS-28; literature report; cited from earlier work

Molecule | biological activity / potency relative to aSS-28 [1] | potency when administered in vivo [2]
CC(C)C[C@H](NC(=O)[C@H](CC(N)=O)NC(=O)[C@H](CC(N)=O)NC(=O)[C@@H](NC(=O)[C@H](CO)NC(=O)[C@H](CC(=O)O)NC(=O)[C@@H](NC(=O)[C@@H](N)CO)C(C)C)[C@@H](C)O)C(=O)N1CCC[C@H]1C(=O)N1CCC[C@H]1C(=O)N[C@@H](CCCNC(=N)N)C(=O)N[C@@H](CCC(=O)O)C(=O)N[C@@H](CCCNC(=N)N)C(=O)N[C@@H](CCCCN)C(=O)N[C@@H](C)C(=O)NCC(=O)N[C@H]1CSSC[C@@H](C(=O)O)NC(=O)[C@H](CO)NC(=O)[C@H]([C@@H](C)O)NC(=O)[C@H](Cc2ccccc2)NC(=O)CNC(=O)[C@H](CCCCN)NC(=O)[C@H](Cc2c[nH]c3ccccc23)NC(=O)[C@H](Cc2ccc(O)cc2)NC(=O)[C@H](Cc2ccccc2)NC(=O)[C@H](CC(N)=O)NC(=O)[C@H](CCCCN)NC1=O [[Lys^23]-aSS-28] (H-SVDSTNNLPPRERKAGCKNFYWKGFTSC-OH; disulfide 17-28) | similarly biologically active although having somewhat lower potencies | 
somatostatin-28 [SS-28] |  | increased potency

From patent US4816438A, “Insulin-selective somatostatin analogs” (The Salk Institute for Biological Studies, priority 1987, dated 1989)
